| SMILES | melting point [°C] |
| --- | --- |
| CCOC(=O)N(c1ccccc1)c1cc(Cl)ccc1N=NC(NC(=O)CCl)(C(=O)OCC)C(=O)OCC | 105 to 110 |
| CCc1c(-c2nnc(C)s2)cc2oc(=O)c(C)c(C)c2c1OC | 201 to 203 |
| CC(CCCc1cccnc1)NC(=O)C(O)c1ccccc1 (stereo not given) | 144 to 146 |
| FC(F)(F)c1ccc(Nc2nc3ccccc3o2)cc1 | 180 to 182 |
| O=C(Oc1cc(OC(=O)c2cc(O)cc(O)c2)c2ccccc2c1)c1cc(O)cc(O)c1 | 167 to 169 |
| CCCCCCCCCCCCCCc1ccc(C(C)=O)c(O)c1 | 45 to 46 |
| NC(=O)c1nccn1C1Cc2cc(-n3ccnc3)ccc2C1=O (stereo not given) | 140 |
| CC(=O)Nc1cccc(C=O)c1C | 160 |
| O=C(O)COc1cc(F)c(F)cc1C(=O)NCc1ccc(Br)cc1F | 156 to 158 |
| CC(=O)OC1CSC(Oc2cncc(-c3ccc(C)c(C)c3)c2)C(OC(C)=O)C1OC(C)=O (stereo not given) | 131 |
| CN1CCc2cc(O)c(O)c(SCc3ccco3)c2CC1 | 162 to 165 |
| Cc1cc(C)cc(-c2nc(N)sc2-c2ccnc(NC(=O)c3ccccc3)c2)c1 | 120 to 123 |
| COc1cccc(C2OC(=O)CC2C(=O)O)c1OC (stereo not given) | 129 to 130 |
| Cc1ccc2c(c1)c(-c1ccc(F)cc1)c(C)n2C1CCN(C)CC1 | 110 to 112 |
| Nc1cc(C(=O)c2ccc(F)c(N)c2)ccc1F | 131 to 132 |
| Cc1nc(C=CNC(=O)c2cccc(C(F)(F)F)c2)n[nH]1 | 153 to 154 |
| C#CC(Cc1ccc(OC)c(OC2CCCC2)c1)C(=O)O (stereo not given) | 109 to 110 |
| CCCc1c(SCCCOc2ccc(C(C)=O)c(OCCCC(=O)O)c2CCC)ccc(C(C)=O)c1O | 79 to 81 |
| CCCCNC(=S)c1cccc(NC(=O)N(C)C)c1 | 68 to 71 |
| Cc1cc(-c2ccc(Cl)cc2)nc2c(C#Cc3ccc(C(C)(C)O)cc3)cnn12 | 112 to 115 |
| CCCCCCCCCCCCCCCCNc1ccc(C#N)cc1 | 63 to 64 |
| Cc1cccc(NC(=O)C(C)Oc2ccc(Oc3ccc(C#N)cc3)cc2)n1 (stereo not given) | 109 to 111 |
| Cc1nc(-n2ccc(OCc3ccc(OC(F)F)cc3)cc2=O)sc1C(=O)NCc1ccc(F)cc1 | 242 to 244 |
| CC(C)n1nc(-c2cnc(N)nc2-c2cccc(Cl)c2)ccc1=O | 236 to 237 |
| O=C1COc2ccc(C3=Nc4ccccc4SC3c3ccccc3)cc2N1 (stereo not given) | 215 to 217 |

| SMILES | melting point [°C] |
| --- | --- |
| CC(C)(C)OC(=O)CN(O)CC(=O)OC(C)(C)C | 73 to 76 |
| CC(CCCc1ccccc1)c1cc2oc(=O)c3c(c2cc1O)CCCC3 (stereo not given) | 184 to 193 |
| COc1cccc(-c2nc(C)nn2-c2ccc(S(N)(=O)=O)cc2)c1 | 211 to 212 |
| c1ccc(CCCC2CCN(Cc3nc4ccccc4[nH]3)CC2)cc1 | 140 to 141 |
| O=C(O)COc1ccc2c(c1)OCO2 | 149 to 151 |
| NC(=O)[C@H]1NC(=O)[C@H]1NC(=O)OCc1ccccc1 | 248 to 249 |
| O=C1Nc2ccccc2C12COc1cc3c(cc12)OCCO3 (stereo not given) | > 250 |
| CC(C)(C#N)CNC(=O)c1n[nH]cc1NC(=O)c1ccccn1 | 238 to 240 |
| Cc1cccc(CC(NC(=O)C(c2ccccc2)c2ccccc2)C(=O)NC(C#N)COCc2cccc(C(=O)O)c2)c1 (stereo not given) | 160 to 162 |
| CCOC(=O)NC[C@H]1CN(c2ccc3c(c2)CCCc2cn[nH]c2-3)C(=O)O1 | 122 to 126 |
| CCCn1nc2c(-c3ccccc3)cccc2c1-c1ccc(O)cc1 | 207 to 208 |
| CCCCCCCCCCCCCCCCCCS(=O)(=O)c1cc2ccccc2cc1O | 98 to 99 |
| Cc1c(CCc2ccc3nc(N)sc3c2)ncn1C(c1ccccc1)(c1ccccc1)c1ccccc1 | 200 to 203 |
| O=c1[nH]nc(-c2ccc(Cl)cc2)o1 | 125 to 127 |
| Cc1nnc(C=Cc2ccccc2OCC(O)CCl)s1 (stereo not given) | 168 to 170 |
| NC(=O)c1c(C(=O)O)cnn1-c1ccc(Br)cc1 | 251 to 252 |
| COC(=O)CCc1ccc(OCC2CCN(c3ccncc3)CC2)cc1 | 96.5 to 98.5 |
| COc1cc(NC(C)=O)c2c3c(c4ccccc4nc13)C=CN2 | 128 to 132 |
| CCOCc1nc2c(N)nc(C)c(C)c2n1CCCC(N)=O | 199 to 200 |
| CCc1nc2c(C)cc(C)nc2n1Cc1ccc2oc(-c3cccc(F)c3C(=O)O)c(Br)c2c1 | 191 to 194 |
| OCC(CO)Oc1ccc(Cl)cc1 | 62 to 64 |
| O=[N+]([O-])c1ccc(OC2OC(CO)C(O)C(OCc3ccccc3)C2O)cc1 (stereo not given) | 127 |
| CCOC(=O)COc1ccc2c(c1)C[C@@H](NC[C@H](O)c1ccccc1)CC2 | 108 to 111 |
| CCCCCCOC(=O)C=Nc1cc(Cl)ccc1C(=O)O | 99 |
| Cc1cc(NC(=O)OC(C)(C)C)c(C)c(C)c1O | 158 to 161 |

| SMILES | melting point [°C] |
| --- | --- |
| O=c1c2ccccc2[nH]c2c1cnn2-c1ccccn1 | 240 to 242 |
| CC(C)(N)[C@H]1CCN(c2c(F)cc3c(=O)c(C(=O)O)cn(C4CC4)c3c2F)C1 | 261 to 264 |
| COc1ccc(/C=C(\C#N)c2c(F)c(F)c(F)c(F)c2F)cc1OC1CCCC1 | 94.5 to 96 |
| O=C(CBr)c1cccn1S(=O)(=O)c1ccccc1 | 89 to 91 |
| CN(C)Cc1ccc(CNC(=O)C2Cc3ccccc3N2S(=O)(=O)c2ccc(-c3ccccc3C(F)(F)F)cc2)cc1 (stereo not given) | 53 |
| O=[N+]([O-])c1ccc(C=NNC2O[C@H](COCc3ccccc3)[C@@H](OCc3ccccc3)[C@H]2OCc2ccccc2)cc1 (stereo not given in full) | 93 |
| Cc1[nH]c2ccccc2c1CCN1CCC(Oc2ccc(F)cc2)CC1 | 97 to 99 |
| CN1CCN(c2c(F)c(F)c([N+](=O)[O-])c(NC3CC3)c2F)CC1 | 75 |
| Fc1cccc(NC(=S)c2ccccn2)c1 | 72 to 76 |
| O=[N+]([O-])c1ccc(OCc2cccc(F)c2)cc1 | 104 to 105 |
| CCOC(=O)Cc1nnnn1C | 64 to 66 |
| C/C=C/c1cccc2c(=O)c(C)c(C(N)=O)oc12 | 243 to 245 |
| O=C1Cc2cc(CCN3CCC(c4noc5cc(F)ccc45)CC3)ccc2N1 | 199 to 204 |
| COC1CC(OC)(OC)C(=O)N1 (stereo not given) | 86 |
| COc1ccc(C(=O)Nc2nc(C)c(C(=O)NCc3ccccc3)s2)cc1 | 203 to 204 |
| CCOCC(=O)Nc1c(NCC(C)C)cc(C)n2nnnc12 | 182 to 185 |
| CCc1ccnc(C(=O)c2[nH]c3ccc(Cl)cc3c2CC(=O)O)c1Cl | 220 |
| C=Cn1ccnc1C(O)(c1ccccc1)c1ccccc1C(C)(C)C (stereo not given) | 152 to 153 |
| CC(C)(C)OC(=O)N1CCC(Oc2ccc(C#N)c(/C=C/N3CCCC3)c2)CC1 | 115 to 117 |
| COC(=O)CCCCCCCCOC1OC(CO)C(O)C(O)C1NC(C)=O (stereo not given) | 178 to 180 |
| Clc1ccc2c(C3CCN(CCCOc4cccc5[nH]ccc45)CC3)c[nH]c2c1Cl | 160 to 165 |
| COc1nc(C(F)(F)C(F)(F)F)cc(=O)n1-c1cc(O)c(Cl)cc1F | 143 to 145 |
| CCCCCC1CCC(CCC2OCC(CCC)CO2)CC1 (stereo not given) | 44 |
| COc1ccc(C(=O)C2=C(O)C(=O)N(c3ccc(C)nn3)C2c2ccc(OC)cc2)cc1 (stereo not given) | 259 |
| Cc1cnc2c(c1)COP(=S)(c1ccccc1)O2 (stereo not given) | 97 to 98 |

Source: a melting point compilation (Tetko et al.; mined from patent text by program, amines drawn as free bases though some values may be those of a salt)
